Holding throughout (assay type): ADME, organism-based
A short description of series [1]: Half life in HIV-negative human at 600 mg, po administered every 24 hrs coadministered with 300 mg of atazanavir every 12 hrs. The settings on record: in vivo.
Series [2] can be described thus: Tmax in HIV-negative human at 600 mg, po administered every 24 hrs coadministered with 300 mg of atazanavir every 12 hrs. The settings on record: in vivo.
Series [3] can be described thus: Cmax in HIV-negative human at 600 mg, po administered every 24 hrs coadministered with 300 mg of atazanavir every 12 hrs. On the set-up: dose 600 mg, route oral. The settings on record: in vivo.
Series [4] is described as follows: AUC (24 hrs) in HIV-negative human at 600 mg, po administered every 24 hrs coadministered with 300 mg of atazanavir every 12 hrs. On the set-up: dose 600 mg, time < 24 hr, route oral. The conditions noted are these: plasma.
The test system of series [5] is Homo sapiens. In words: Terminal apparent distribution volume in HIV-negative human at 600 mg, po administered every 24 hrs coadministered with 300 mg of atazanavir every 12 hrs. The conditions noted are these: in vivo.
The nature of series [6]: Apparent oral clearance in HIV-negative human at 600 mg, po administered every 24 hrs coadministered with 300 mg of atazanavir every 12 hrs. The settings on record: in vivo.
Series [7] in a line: Half life in HIV-negative human at 600 mg, po administered every 24 hrs coadministered with 400 mg of atazanavir every 12 hrs. The conditions noted are these: in vivo.
Series [8] can be described thus: Tmax in HIV-negative human at 600 mg, po administered every 24 hrs coadministered with 400 mg of atazanavir every 12 hrs. The conditions noted are these: in vivo.
Series [9] is described as follows: Cmax in HIV-negative human at 600 mg, po administered every 24 hrs coadministered with 400 mg of atazanavir every 12 hrs. On the set-up: dose 600 mg, route oral. The settings on record: in vivo.
The nature of series [10]: AUC (24 hrs) in HIV-negative human at 600 mg, po administered every 24 hrs coadministered with 400 mg of atazanavir every 12 hrs. On the set-up: time < 24 hr, dose 600 mg, route oral. The conditions noted are these: plasma.
Series [11] concerns Homo sapiens. In words: Terminal apparent distribution volume in HIV-negative human at 600 mg, po administered every 24 hrs coadministered with 400 mg of atazanavir every 12 hrs. The conditions noted are these: in vivo.
Series [12] in a line: Apparent oral clearance in HIV-negative human at 600 mg, po administered every 24 hrs coadministered with 400 mg of atazanavir every 12 hrs. The conditions noted are these: in vivo.

SMILES strings stand for the structures.

Turning to `CO[C@H]1/C=C/O[C@@]2(C)Oc3c(C)c(O)c4c(O)c(c(/C=N/N5CCN(C)CC5)c(O)c4c3C2=O)NC(=O)/C(C)=C\C=C\[C@H](C)[C@H](O)[C@@H](C)[C@@H](O)[C@@H](C)[C@H](O)[C@@H]1C`, the half-life (as a rule, the time in which the quantity being followed falls by half) was 1.6 h in series [1] and 1.5 h in [7]. Also, the Tmax – broadly, the time from dosing to the highest level – in series [2] came to 3.2 h; in series [8], 3.7 h. Also, the Cmax (in general, the highest concentration seen after dosing) in series [3] stood at 1650 ng/mL; in series [9] it was 1710 ng/mL. Moreover, the values for the AUC at 24 h in series [4] and in series [10] were 8300 ng·h/mL and 9400 ng·h/mL, respectively. For the same compound, the results for the Vbeta in series [5] and in series [11] were 200 L and 159 L, respectively. Further, the figures for the CL/F in series [6] and in series [12] were 1490 mL/min and 1260 mL/min, respectively.
Turning to `CO[C@H]1/C=C/O[C@@]2(C)Oc3c(C)c(O)c4c(O)c(c(/C=N/N5CCN(C)CC5)c(O)c4c3C2=O)NC(=O)/C(C)=C\C=C\[C@H](C)[C@H](O)[C@@H](C)[C@@H](O)[C@@H](C)[C@H](OC(C)=O)[C@@H]1C` [RIFAMPIN], the Tmax in [2] and in [8] was 2.7 h in each case. In addition, the highest concentration (Cmax) in [3] came out at 9490 ng/mL; in series [9], 10100 ng/mL. Also, the AUC (commonly the area under the concentration-time curve, a measure of exposure) at 24 h came out at 45700 ng·h/mL in [4] and 41700 ng·h/mL in [10]. The results for the Vbeta in series [5] and in [11] were 32 L and 33 L, respectively. In addition, the CL/F (commonly clearance divided by bioavailability, as obtained after extravascular dosing) is 252 mL/min in series [6] and 275 mL/min in [12].

Source of the values: ChEMBL document CHEMBL1143406 (Antimicrob Agents Chemother, 2007).
